Measurements as given in patent US5332740A, “DC-89 derivatives” (priority 1990, dated 1994).

Tests used:
[1] = test system: Sarcoma 180 tumor; test: Therapeutic Effect against Sarcoma 180 Tumor; assay type: in vivo, male ddY-strain mice; conditions: single intravenous, average tumor volume treated/control, seven days after implantation
Procedure: Therapeutic Effect against Sarcoma 180 Tumor
Five male ddY-strain mice each having a weight of 18 to 20 g were used for each group as test animals, and 5×10^5 Sarcoma 180 tumor cells were implanted subcutaneously into the animals at the axilla. One day after the implantation, 0.2 ml of physiological saline containing Compound (I) at the concentration indicated in Table 3 was intravenously administered to each mouse. T/C [T: average tumor volume (mm^3) of the group treated with the test compound, C: that of the control group which received an intravenous administration of 0.2 ml of physiological saline] was determined seven days after the implantation.

[2] = test system: ddY-strain male mice; test: Acute Toxicity Test; assay type: in vivo; conditions: intraperitoneal; mortality observed for 14 days after the administration
Procedure: A test compound was intraperitoneally administered to ddY-strain male mice each weighing 20±1 g. MLD (the minimum lethal dose) was determined by observing the mortality for 14 days after the administration.

[3] = test system: various bacteria; conditions: against various bacteria; cited from earlier work
[4] = test system: melanoma B-16; conditions: against melanoma B-16; cited from earlier work

| SMILES | Acute Toxicity (MLD), minimum lethal dose [2] | antibacterial activity [3] | anti-tumor activity [4] | also measured |
| --- | --- | --- | --- | --- |
| COC(=O)C1(C)Nc2c(OC(=O)N3CCN(C)CC3)cc3c(c2C1=O)CC(Br)CN3C(=O)c1cc2cc(OC)c(OC)c(OC)c2[nH]1 (stereo not shown) [Compound 2] | 5.2 mg/kg | – | – | T/C ([1]; dose 1.0 mg/kg): 0.19; T/C ([1]; dose 2.0 mg/kg): 0.083 |
| COC(=O)C1(C)Nc2c(OC(=O)N3CCN(CCN)CC3)cc3c(c2C1=O)CC(Br)CN3C(=O)c1cc2cc(OC)c(OC)c(OC)c2[nH]1 (stereo not shown) [Compound 3] | 2.0 mg/kg | – | – | T/C ([1]; dose 0.50 mg/kg): 0.25; T/C ([1]; dose 1.0 mg/kg, 1 mg/kg): 0.094 |
| COC(=O)C1(C)Nc2c(OC(=O)N3CCN(CCN)CC3)cc3c(c2C1=O)CC(Br)CN3C(=O)c1cc2cc(OC)c(OC)c(OC)c2[nH]1 (stereo not shown) [Compound 4] | 2.0 mg/kg | – | – | T/C ([1]; dose 1.0 mg/kg, 1 mg/kg): 0.047 |
| COC(=O)C1(C)Nc2c(OC(=O)N3CCC(N4CCCCC4)CC3)cc3c(c2C1=O)CC(Br)CN3C(=O)c1cc2cc(OC)c(OC)c(OC)c2[nH]1 (stereo not shown) [Compound 5] | 2.0 mg/kg | – | – | – |
| COC(=O)C1(C)Nc2c(OC(=O)N3CCC(N4CCCCC4)CC3)cc3c(c2C1=O)CC(Br)CN3C(=O)c1cc2cc(OC)c(OC)c(OC)c2[nH]1 (stereo not shown) [Compound 6] | 4.0 mg/kg | – | – | – |
| COC(=O)c1c(C)[nH]c2c(O[Si](C)(C)C(C)(C)C)cc3c(c12)CC(Br)CN3C(=O)c1cc2cc(OC)c(OC)c(OC)c2[nH]1 (stereo not shown) [Compound 7] | 4.0 mg/kg | – | – | T/C ([1]; dose 1.0 mg/kg): 0.13; T/C ([1]; dose 2.0 mg/kg): 0.025 |
| COc1cc2cc(C(=O)N3CC(Br)Cc4c3cc(O[Si](C)(C)C(C)(C)C)c3[nH]c(C)cc43)[nH]c2c(OC)c1OC (stereo not shown) [Compound 8] | 8.0 mg/kg | – | – | T/C ([1]; dose 2.0 mg/kg): 0.19 |
| COc1cc2cc(C(=O)N3CC(Br)Cc4c3cc(OC(=O)N(C)C)c3[nH]c(C)cc43)[nH]c2c(OC)c1OC (stereo not shown) [Compound 9] | 0.50 mg/kg | – | – | T/C ([1]; dose 0.25 mg/kg): 0.15; T/C ([1]; dose 0.50 mg/kg): 0.068 |
| COC(=O)c1c(C)[nH]c2c(O[Si](C)(C)C(C)(C)C)cc3c(c12)CC(Cl)CN3C(=O)c1cc2cc(OC)c(OC)c(OC)c2[nH]1 (stereo not shown) [Compound 10] | > 8.0 mg/kg | – | – | – |
| COc1cc2cc(C(=O)N3CC(Cl)Cc4c3cc(O[Si](C)(C)C(C)(C)C)c3[nH]c(C)cc43)[nH]c2c(OC)c1OC (stereo not shown) [Compound 11] | > 8.0 mg/kg | – | – | – |
| COC(=O)C1(C)Nc2c(OC(=O)N3CCN(C)CC3)cc3c(c2C1=O)CC(Cl)CN3C(=O)c1cc2cc(OC)c(OC)c(OC)c2[nH]1 (stereo not shown) [Compound 14] | > 16 mg/kg | – | – | – |
| COC(=O)C1(C)NC2=C(C1=O)C13CC1CN(C(=O)c1cc4cc(OC)c(OC)c(OC)c4[nH]1)C3=CC2=O (stereo not shown) [DC-88A] | – | shows an antibacterial activity against a variety of bacteria | exhibits an anti-tumor activity against melanoma B-16 | – |
| COC(=O)C1(C)Nc2c(O)cc3c(c2C1=O)CC(Cl)CN3C(=O)c1cc2cc(OC)c(OC)c(OC)c2[nH]1 (stereo not shown) [DC-89A1] | – | exhibit an antibacterial activity against various bacteria | show an anti-tumor activity against melanoma B-16 | – |
| COC(=O)C1(C)Nc2c(O)cc3c(c2C1=O)C(CCl)CN3C(=O)c1cc2cc(OC)c(OC)c(OC)c2[nH]1 (stereo not shown) [DC-89A2] | – | exhibit an antibacterial activity against various bacteria | show an anti-tumor activity against melanoma B-16 | – |
| COC(=O)C1(C)Nc2c(O)cc3c(c2C1=O)CC(Br)CN3C(=O)c1cc2cc(OC)c(OC)c(OC)c2[nH]1 (stereo not shown) [DC-89B1] | – | exhibit an antibacterial activity against various bacteria | show an anti-tumor activity against melanoma B-16 | – |
| COC(=O)C1(C)Nc2c(O)cc3c(c2C1=O)C(CBr)CN3C(=O)c1cc2cc(OC)c(OC)c(OC)c2[nH]1 (stereo not shown) [DC-89B2] | – | exhibit an antibacterial activity against various bacteria | show an anti-tumor activity against melanoma B-16 | – |
